Measured values taken from PMC9700480 (Drug Design, Development and Therapy, 2022).

Tested on: alloxan-induced diabetic mice
Experiment: In vivo anti-diabetic activity in alloxan-induced diabetic mice
Set-up: species or system albino mice (strain balb/c)

C[C@H]1O[C@H](O[C@H]2[C@H](O)[C@@H](O)[C@@H](O[C@H]3[C@H](O)[C@@H](O)C(O)O[C@@H]3CO)O[C@@H]2CO)[C@H](O)[C@@H](O)[C@@H]1N[C@H]1C=C(CO)[C@@H](O)[C@H](O)[C@H]1O (some centres unmarked) [Acarbose]
Creatinine content (day 21, compared with diabetic control): significant (p < 0.05) decrease in creatinine content | level of insulin in serum (day 21, FA2 at high dose): 25 ± 3.1 pmol/L
